Pest or weed control data for 20 molecules are collected here from patent US9204653B2, “5-fluoro pyrimidine derivatives” (DOW AGROSCIENCES LLC, priority 2008, dated 2015).

In the assay the test system is Mycosphaerella graminicola; Anamorph: Septoria tritici; Bayer Code SEPTTR. The assay is described as follows: Leaf blotch of wheat, foliar fungicide treatment, one day protectant (1DP) or three day curative (3DC). Type of assay: in vivo, Septoria tritici on wheat plants (variety Yuma). Conditions: Zymoseptoria tritici, percent disease control rating.
Where [1] appears, read: 24 h, one day protectant (1DP), read-out: SETTTR 1DP 25 ppm.
[2] abbreviates: 24 h, one day protectant (1DP), read-out: SEPTTR 1DP 100 ppm.
Setting [3] is: 72 h, three day curative (3DC), read-out: SEPTTR 3DC 25 ppm.
Where [4] appears, read: 72 h, three day curative (3DC), read-out: SEPTTR 3DC 100 ppm.

Read-outs that look alike come from different tables or passages of the source.

For the molecule `Nc1nc(OCc2cccc(Br)c2)ncc1F` [Compound 2, 2-(3-Bromobenzyloxy)-5-fluoropyrimidin-4-ylamine], the pest or weed control at 25 ppm runs as follows: under setting [1], 76 to 100%; under setting [3], 76 to 100%. The pest or weed control at 100 ppm under setting [2] is 76 to 100% and the pest or weed control at 100 ppm under setting [4] was 76 to 100%.
As to `CC(=O)Nc1nc(OCc2cccs2)ncc1F` [Compound 6, N-[5-Fluoro-2-(thiophen-2-ylmethoxy)pyrimidin-4-yl]acetamide], the pest or weed control at 25 ppm runs as follows: under setting [1], 76 to 100%; under setting [3], 76 to 100%. The pest or weed control at 100 ppm under setting [2] was 76 to 100% and the pest or weed control at 100 ppm under setting [4] lay within 76 to 100%.
For `CC[Si](CC)(CC)Nc1nc(OCc2ccc(F)cc2)ncc1F` [Compound 8, [5-Fluoro-2-(4-fluorobenzyloxy)pyrimidin-4-yl]triethylsilanylamine], the pest or weed control at 25 ppm under setting [1] lay within 76 to 100% and the pest or weed control at 25 ppm under setting [3] is 76 to 100%. In addition, the pest or weed control at 100 ppm was in the range of 76 to 100% under setting [2] and 76 to 100% under setting [4].
In the case of `O=C(Nc1nc(OCc2ccc(F)cc2)ncc1F)c1snc(Cl)c1Cl` [Compound 12, 3,4-Dichloroisothiazole-5-carboxylic acid [5-fluoro-2-(4-fluorobenzyl-oxy)pyrimidin-4-yl]amide], the pest or weed control at 25 ppm reads like this: under setting [1], 76 to 100%; under setting [3], 76 to 100%. Moreover, the pest or weed control at 100 ppm under setting [2] lay in the range of 76 to 100% and the pest or weed control at 100 ppm under setting [4] lay in the range of 76 to 100%.
Take `Cc1ccc(COc2ncc(F)c(NCO)n2)cc1` [Compound 16, [5-Fluoro-2-(4-methylbenzyloxy)pyrimidin-4-ylamino]methanol]: the pest or weed control at 25 ppm fell in the range of 76 to 100% under setting [1] and 76 to 100% under setting [3]. The pest or weed control at 100 ppm lay in the range of 76 to 100% under setting [2] and 76 to 100% under setting [4].
As for `OCNc1nc(OCc2ccc(F)cc2)ncc1F` [Compound 17], the pest or weed control at 25 ppm is, setting by setting: under setting [1], 76 to 100%; under setting [3], 76 to 100%. Also, the pest or weed control at 100 ppm lay in the range of 76 to 100% under setting [2] and 76 to 100% under setting [4].
In the case of `Fc1ccc(COc2ncc(F)c(NCOCc3ccccc3)n2)cc1` [Compound 18, Benzyloxymethyl[5-fluoro-2-(4-fluorobenzyloxy)pyrimidin-4-yl]amine], the pest or weed control at 25 ppm lay within 51 to 75% under setting [1] and 51 to 75% under setting [3]. Moreover, the pest or weed control at 100 ppm is, setting by setting: under setting [2], 76 to 100%; under setting [4], 51 to 75%.
On to `CC(C)(C)C(=O)OCNc1nc(OCc2ccc(F)cc2)ncc1F` [Compound 19, 2,2-Dimethylpropionic acid[5-fluoro-2-(4-fluorobenzyloxy)pyrimidin-4-ylamino]methyl ester], for which the pest or weed control at 25 ppm is, setting by setting: under setting [1], 76 to 100%; under setting [3], 51 to 75%. For the same molecule, the pest or weed control at 100 ppm was 76 to 100% under setting [2] and 76 to 100% under setting [4].
Turning to `Fc1ccc(COc2ncc(F)c(/N=C/N3CCCC3)n2)cc1` [Compound 21, [5-Fluoro-2-(4-fluorobenzyloxy)pyrimidin-4-yl]-[1-pyrrolidin-1-yl-methylidene]amine], the pest or weed control at 25 ppm reads like this: under setting [1], 76 to 100%; under setting [3], 76 to 100%. For the same molecule, the pest or weed control at 100 ppm is 76 to 100% under setting [2] and 76 to 100% under setting [4].
Turning to `O/N=C\Nc1nc(OCc2ccc(F)cc2)ncc1F` [Compound 22, N-[5-Fluoro-2-(4-fluorobenzyloxy)pyrimidin-4-yl]-N′-hydroxy-formamidine], the pest or weed control at 25 ppm by setting is: under setting [1], 76 to 100%; under setting [3], 76 to 100%. The pest or weed control at 100 ppm under setting [2] was in the range of 76 to 100% and the pest or weed control at 100 ppm under setting [4] was in the range of 76 to 100%.
As for `CN(C)/C=N/c1nc(O)ncc1F` [Compound 25, N′-(5-Fluoro-2-hydroxy-pyrimidin-4-yl)-N,N-dimethyl-formamidine], the pest or weed control at 25 ppm under setting [1] lay within 76 to 100% and the pest or weed control at 25 ppm under setting [3] was 76 to 100%. For the same molecule, the pest or weed control at 100 ppm lay in the range of 76 to 100% under setting [2] and 76 to 100% under setting [4].
Turning to `CCOC(=O)Oc1ncc(F)c(/N=C/N(C)C)n1` [Compound 26, Carbonic acid 4-(dimethylamino-methyleneamino)-5-fluoropyrimidin-2-yl ester ethyl ester], the pest or weed control at 25 ppm was 76 to 100% under setting [1] and 76 to 100% under setting [3]. The pest or weed control at 100 ppm reads like this: under setting [2], 76 to 100%; under setting [4], 76 to 100%.
Regarding `CN(C)/C=N/c1nc(OC(=O)c2ccccc2)ncc1F` [Compound 27, Benzoic acid 4-(dimethylamino-methyleneamino)-5-fluoropyrimidin-2-yl ester], the pest or weed control at 25 ppm under setting [1] was in the range of 76 to 100% and the pest or weed control at 25 ppm under setting [3] was 76 to 100%. Moreover, the pest or weed control at 100 ppm by setting is: under setting [2], 76 to 100%; under setting [4], 76 to 100%.
Consider `CN(C)/C=N/c1nc(OS(=O)(=O)c2ccccc2)ncc1F` [Compound 28, Benzenesulfonic acid 4-(dimethylamino-methyleneamino)-5-fluoro-pyrimidin-2-yl ester], for which the pest or weed control at 25 ppm under setting [1] is 76 to 100% and the pest or weed control at 25 ppm under setting [3] was in the range of 76 to 100%. Besides, the pest or weed control at 100 ppm reads like this: under setting [2], 76 to 100%; under setting [4], 76 to 100%.
As to `Nc1nc(OS(=O)(=O)c2ccccc2)ncc1F` [Compound 29, Benzenesulfonic acid 4-amino-5-fluoropyrimidin-2-yl ester], the pest or weed control at 25 ppm lay in the range of 76 to 100% under setting [1] and 51 to 75% under setting [3]. Further, the pest or weed control at 100 ppm runs as follows: under setting [2], 76 to 100%; under setting [4], 76 to 100%.
`Fc1ccc(COc2ncc(F)c(NCc3ccccc3F)n2)cc1` [Compound 30, (2-Fluorobenzyl)-[5-fluoro-2-(4-fluorobenzyloxy)pyrimidin-4-yl]amine]: the pest or weed control at 25 ppm fell in the range of 51 to 75% under setting [1] and 51 to 75% under setting [3]. The pest or weed control at 100 ppm is 76 to 100% under setting [2] and 76 to 100% under setting [4].
With `COc1ccc(N(N)c2nc(OCc3cccc(OC)c3)ncc2F)cc1` [Compound 31, 5-Fluoro-2-(3-methoxybenzyloxy)-4-(1-(4-methoxyphenyl)-hydrazinyl)pyrimidine], the pest or weed control at 25 ppm reads like this: under setting [1], 0 to 25%; under setting [3], 0 to 25%. Further, the pest or weed control at 100 ppm was 0 to 25% under setting [2] and 0 to 25% under setting [4].
Regarding `C=CCONc1nc(OCc2cccc(OC)c2)ncc1F` [Compound 32, O-Allyl-N-(5-fluoro-2-(3-methoxybenzyloxy)pyrimidin-4-yl)hydroxylamine], the pest or weed control at 25 ppm was 26 to 50% under setting [1] and 0 to 25% under setting [3]. Also, the pest or weed control at 100 ppm lay within 76 to 100% under setting [2] and 76 to 100% under setting [4].
In the case of `N#Cc1cccc(COc2ncc(F)c(N)n2)c1` [Compound 33], the pest or weed control at 25 ppm under setting [1] lay in the range of 76 to 100% and the pest or weed control at 25 ppm under setting [3] was 76 to 100%. The pest or weed control at 100 ppm under setting [2] fell in the range of 76 to 100% and the pest or weed control at 100 ppm under setting [4] was in the range of 76 to 100%.
Consider `N#Cc1cccc(COc2ncc(F)c(NC(=O)NCc3ccccc3F)n2)c1` [Compound 34, 1-[2-(3-Cyanobenzyloxy)-5-fluoropyrimidin-4-yl]-3-(2-fluorobenzyl)urea], for which the pest or weed control at 25 ppm was 0 to 25% under setting [1] and 0 to 25% under setting [3]. Further, the pest or weed control at 100 ppm under setting [2] was in the range of 0 to 25% and the pest or weed control at 100 ppm under setting [4] was in the range of 0 to 25%.
